From patent US9815832B2 (priority 2013, dated 2017) come the findings set out here.

Counter-ions that a name gives are not always drawn.

Chain of human recombinant PDE4B (Q07343 122-736 S133E/S654A/S659A/S661A): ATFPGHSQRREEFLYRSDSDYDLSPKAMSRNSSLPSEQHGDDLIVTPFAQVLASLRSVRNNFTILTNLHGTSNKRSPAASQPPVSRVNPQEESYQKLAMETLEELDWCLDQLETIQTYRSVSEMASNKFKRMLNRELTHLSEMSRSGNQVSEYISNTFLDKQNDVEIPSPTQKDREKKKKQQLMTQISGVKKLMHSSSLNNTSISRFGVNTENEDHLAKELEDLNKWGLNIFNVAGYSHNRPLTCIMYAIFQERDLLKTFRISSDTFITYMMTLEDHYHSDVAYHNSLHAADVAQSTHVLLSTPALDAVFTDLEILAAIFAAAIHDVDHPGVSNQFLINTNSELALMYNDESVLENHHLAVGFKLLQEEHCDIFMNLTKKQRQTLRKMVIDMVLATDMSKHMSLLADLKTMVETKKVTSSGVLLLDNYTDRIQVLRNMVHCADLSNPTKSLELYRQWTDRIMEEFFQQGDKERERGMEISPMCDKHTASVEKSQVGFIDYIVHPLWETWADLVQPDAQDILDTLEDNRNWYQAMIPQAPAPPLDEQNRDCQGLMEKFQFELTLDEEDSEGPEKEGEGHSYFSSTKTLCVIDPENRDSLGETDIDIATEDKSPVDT

This assay addresses human recombinant PDE4B (Homo sapiens (Human), UniProt Q07343, S133E/S654A/S659A/S661A). The settings on record: read-out: Human PDE4B FL.
Description: Reactions are incubated for 30 min at 25° C. The addition of 20 μL of 8 mg/mL yitrium silicate SPA beads (PerkinElmer) stops the reaction. The plates are sealed (TopSeal, PerkinElmer) and the beads are allowed to settle for 8 hrs, after which they are read on the Trilux Microbeta overnight.
Regarding `O=C(NC1CC1)c1nc2cccnc2n1-c1ccc2ncsc2c1` [Example 71, 3-(1,3-Benzothiazol-6-yl)-N-cyclopropyl-3H-imidazo[4,5-b]pyridine-2-carboxamide], the IC50 was determined as 0.155 µM.

On to `Cc1nc2ccc(-n3c(C(=O)NC4CC4)nc4cccnc43)cc2s1` [Example 73, N-Cyclopropyl-3-(2-methyl-1,3-benzothiazol-6-yl)-3H-imidazo[4,5-b]pyridine-2-carboxamide], for which the IC50 amounted to 0.516 µM.

On to `Cc1cc(C)cc(-n2c(C(=O)NC3CC3)nc3cccnc32)c1` [Example 76, N-Cyclopropyl-3-(3,5-dimethylphenyl)-3H-imidazo[4,5-b]pyridine-2-carboxamide], for which the IC50 came to 0.374 µM.

Turning to `O=C(NC1CC1)c1nc2cccnc2n1-c1cccc(Cl)c1F` [Example 78, 3-(3-Chloro-2-fluorophenyl)-N-cyclopropyl-3H-imidazo[4,5-b]pyridine-2-carboxamide, trifluoroacetate salt], the IC50 came to 0.387 µM.

As for `O=C(NC1CC1)c1nc2cccnc2n1-c1ccc2ncccc2c1` [Example 80, N-Cyclopropyl-3-(quinolin-6-yl)-3H-imidazo[4,5-b]pyridine-2-carboxamide, trifluoroacetate salt], the IC50 was found to be 1.47 µM.

Consider `CCNC(=O)c1nc2cccnc2n1-c1cncc(Cl)c1` [Example 81, 3-(5-Chloropyridin-3-yl)-N-ethyl-3H-imidazo[4,5-b]pyridine-2-carboxamide], for which the IC50 stood at 8.27 µM.

For the compound `O=C(NC1CC1)c1nc2cccnc2n1-c1ccnc(C(F)(F)F)c1` [Example 82, N-Cyclopropyl-3-[2-(trifluoromethyl)pyridin-4-yl]-3H-imidazo[4,5-b]pyridine-2-carboxamide], the IC50 is 6.07 µM.

Turning to `COc1cncc(-n2c(C(=O)NC3CC3)nc3cccnc32)c1` [Example 83, N-Cyclopropyl-3-(5-methoxypyridin-3-yl)-3H-imidazo[4,5-b]pyridine-2-carboxamide], the IC50 came to 13.6 µM.

Take `Cc1cc(-n2c(C(=O)NC3CC3)nc3cccnc32)c(Cl)cc1F` [Example 84, 3-(2-Chloro-4-fluoro-5-methylphenyl)-N-cyclopropyl-3H-imidazo[4,5-b]pyridine-2-carboxamide]: the IC50 stood at 16.6 µM.

Take `Cc1ccc(-n2c(C(=O)NC3CC3)nc3cccnc32)cn1` [Example 85, N-Cyclopropyl-3-(6-methylpyridin-3-yl)-3H-imidazo[4,5-b]pyridine-2-carboxamide]: the IC50 was found to be 7.73 µM.

Regarding `Cn1ncc2ccc(-n3c(C(=O)NC4CC4)nc4cccnc43)cc21` [Example 86, N-Cyclopropyl-3-(1-methyl-1H-indazol-6-yl)-3H-imidazo[4,5-b]pyridine-2-carboxamide], the IC50 came to 24.5 µM.

In the case of `COc1ccc(-n2c(C(=O)NC3CC3)nc3cccnc32)cc1OC` [Example 87, N-Cyclopropyl-3-(3,4-dimethoxyphenyl)-3H-imidazo[4,5-b]pyridine-2-carboxamide], the IC50 is 2.72 µM.

Regarding `Cc1ccc(-n2c(C(=O)NC3CC3)nc3cccnc32)c(Cl)c1` [Example 88, 3-(2-Chloro-4-methylphenyl)-N-cyclopropyl-3H-imidazo[4,5-b]pyridine-2-carboxamide], the IC50 is 3.7 µM.

`COc1ccc(-n2c(C(=O)NC3CC3)nc3cccnc32)c(C)c1` [Example 89, N-Cyclopropyl-3-(4-methoxy-2-methylphenyl)-3H-imidazo[4,5-b]pyridine-2-carboxamide]: the IC50 is 3.52 µM.

With `O=C(NC1CC1)c1nc2cccnc2n1-c1cc(F)ccc1Cl` [Example 90, 3-(2-Chloro-5-fluorophenyl)-N-cyclopropyl-3H-imidazo[4,5-b]pyridine-2-carboxamide], the IC50 was 9.23 µM.

In the case of `Cc1ccc(Cl)c(-n2c(C(=O)NC3CC3)nc3cccnc32)c1` [Example 91, 3-(2-Chloro-5-methylphenyl)-N-cyclopropyl-3H-imidazo[4,5-b]pyridine-2-carboxamide], the IC50 turned out to be 9.42 µM.

Take `O=C(NC1CC1)c1nc2cccnc2n1-c1ccc(C(F)(F)F)cc1` [Example 92, N-Cyclopropyl-3-[4-(trifluoromethyl)phenyl]-3H-imidazo[4,5-b]pyridine-2-carboxamide]: the IC50 is 3.11 µM.
